Measured values reported in US20080039531A1, “Compositions, and kits comprising targeted aldehyde or acetal protease inhibitor compounds for treating muscle disorders” (priority 2005, published 2008).
“And” between values parts separate entries of the source, which are not always exact repeats. Identical values can stand only once.

Experiments:
[1] = Monkey study, intramuscular leupeptin: toxicology and echocardiograms; type: in vivo, Cebus apella
Experimental: (§1) In order to test the hypothesis that in vivo inhibition of calpains by leupeptin can facilitate neuromuscular recovery by inhibiting denervation atrophy of the skeletal-muscle target after complete peripheral nerve transection and delayed nerve repair (7), a monkey study (Cebus apella) was undertaken. This median-nerve model was chosen to approximate human anatomic and regenerative aspects.
Complete blood counts and clotting times after intramuscular leupeptin administration at 18 mg/kg, twice daily for 24 weeks, were not affected in treated animals, when compared to controls. In controls, mean values were as follows: WBC=4.83±1.04×10^3; RBC=5.34±0.34×10^6; hematocrit=37.97%±2.09; platelets=3.30±0.05×10^5; prothrombin time=9.68±0.36 sec; partial thromboplastin time=28.78±1.32 sec. In treated animals, mean values were: WBC=6.67±2.26×10^3; RBC=5.55±0.26×10^6; hematocrit=38.18%+1.69; platelets 4.33±0.18×10^5; prothrombin time=10.88±0.49 sec; partial thromboplastin time=33.06±0.76 sec.
Echocardiograms: To assure that leupeptin was causing no pathological effects on heart muscle, the cardiac lateral wall and septum were measured in millimeters in all animals prior to leupeptin treatment and 25 weeks after delayed nerve repair. Prior to treatment, in animals designated as controls, the lateral wall was 2.88±0.33 mm and the septum was 2.84±0.2 mm. Twenty-five weeks later in control animals, the lateral wall was 3.0±0.5 mm and the septum was 2.9±0.2 mm. Prior to treatment, in animals designated to receive leupeptin, the lateral wall was 3.5±0.2 mm and the septum was 2.9±0.4 mm. Twenty-five weeks later, in leupeptin-treated animals, the lateral wall was 3.2±0.1 mm and the septum was 2.8±0.3 mm. Importantly, there were no significant statistical differences within either the control or treatment groups or between the control and treatment groups (data not shown).

[2] = tested on: opponens pollicis and abductor pollicis myofibers; test: Monkey study, oral leupeptin: myofiber diameter after median nerve repair; type: in vivo, monkeys; settings: for percentage atrophy: loss of myofiber diameter vs left, unoperated control group: 3 months post nerve repair
Experimental: Subsequent to the above studies another series of experiments were performed on the monkeys to assess another route of leupeptin administration in these animals (8). In this regard, oral delivery of leupeptin, after median nerve transection and epineural nerve repair, was studied for its potential benefits to neuromuscular recovery. […] When plasma leupeptin concentrations were 3 mg or greater, morphologic and functional motor recovery were facilitated after nerve repair.
When expressed as a percentage atrophy, in comparison to the left, unoperated control group, the right control group lost 63 percent of its myofiber diameter; the 3-mg group lost 53% of its myofiber diameter; the 6-mg group 23%; the 12-mg group 11%; and the 18-mg group only 8%.

[3] = tested on: opponens and abductor myofibers; test: Monkey study, intramuscular leupeptin: muscle morphology after delayed median nerve repair; type: in vivo, Cebus apella
Text: as §1

[4] = Absorption of leupeptin into plasma after intramuscular injection (FIG. 2); type: in vivo, rats; settings: leupeptin 18 mg/kg intramuscular injection in hind-limbs
Experimental: To determine that leupeptin was effectively being absorbed into plasma following intramuscular (“IM”) administration in hind-limbs of 18 mg/kg, blood was withdrawn at 60, 75, 90, 120, 180 minutes and 24 hours after the IM injection (FIG. 2).

Duchenne patients = test: Preliminary safety trial of oral leupeptin in DMD children; type: in vivo
Experimental: Leupeptin's low toxicity, non-immunogenicity and stability profile have made it a potential drug for eventual human use. In this regard, a preliminary safety trial of leupeptin in seven Italian DMD children with ages varying from 7-10 was performed. The trial was approved by the Italian Ministry of Health and the leupeptin supplied by the Nippon Kayaku Co., Japan. […] During the process of muscle degeneration, muscle cells break open and their contents find their way into the bloodstream. […] CK levels can be slightly elevated (500 U/L) in some nerve disorders, or grossly elevated (5,000 to 15,000 U/L) in DMD or inflammatory myopathies. Importantly the significant decline in CK levels after treatment with leupeptin indicates a significant improvement (lessening of muscle breakdown) in these individuals, especially in the child given 100 mg twice daily.

[5] = leupeptin-treated monkeys, twenty-five weeks after delayed nerve repair
[6] = monkeys, intramuscular leupeptin 18 mg/kg twice daily for 24 weeks
[7] = left, unoperated hand of leupeptin treated monkeys, 24 weeks

## CC(=O)N[C@@H](CC(C)C)C(=O)N[C@@H](CC(C)C)C(=O)N[C@H](C=O)CCCNC(=N)N [Leupeptin]
[1]; [5]
  cardiac lateral wall (echocardiogram): 3.2±0.1 mm
  cardiac septum (echocardiogram): 2.8±0.3 mm
[1]; [6]
  RBC: 5.55±0.26×10^6
  WBC: 6.67±2.26×10^3
  blood chemistry analyses, treated vs control: no significant differences between treated and control animals
  hematocrit: 38.18%
  partial thromboplastin time: 33.06 ± 0.76 s
  platelets: 4.33±0.18×10^5
  prothrombin time: 10.88 ± 0.49 s
[2]; left abductor pollicis, 6 months, 6-mg, 12-mg, 18-mg groups, p<0.01 (FIG. 5)
  mean myofiber diameter vs left control group: small but significant increase
[2]; right abductor pollicis, 6 months after nerve repair, 6-mg, 12-mg, 18-mg groups, p<0.01 (FIG. 5)
  mean myofiber diameter vs right control group: significant increase
[2]; right abductor pollicis, 6 months after nerve repair, oral leupeptin 3-mg group
  percent atrophy: loss of myofiber diameter vs left, unoperated abductor pollicis: 30%
[2]; right abductor pollicis, 6 months after nerve repair, oral leupeptin 6-mg group
  percent atrophy: loss of myofiber diameter vs left, unoperated abductor pollicis: 5%
[2]; right abductor pollicis, 6 months after nerve repair, oral leupeptin 12-mg group
  increase in myofiber diameter (no atrophy) vs left, unoperated abductor pollicis: 1.2%
[2]; right abductor pollicis, 6 months after nerve repair, oral leupeptin 18-mg group
  increase in myofiber diameter (no atrophy) vs left, unoperated abductor pollicis: 1.3%
[2]; right opponens pollicis, 3 months after nerve repair, all leupeptin treatment groups, p<0.01 (FIG. 4)
  mean myofiber diameter vs right control group: significant increase
[2]; right opponens pollicis, oral leupeptin 3-mg group
  percentage atrophy: loss of myofiber diameter vs left, unoperated control group: 53%
[2]; right opponens pollicis, oral leupeptin 6-mg group
  percentage atrophy: loss of myofiber diameter vs left, unoperated control group: 23%
[2]; right opponens pollicis, oral leupeptin 12-mg group
  percentage atrophy: loss of myofiber diameter vs left, unoperated control group: 11%
[2]; right opponens pollicis, oral leupeptin 18-mg group
  percentage atrophy: loss of myofiber diameter vs left, unoperated control group: 8%
[3]; [7]
  mean myofiber diameter, abductor: 40.43±2.23 μm
  mean myofiber diameter, opponens: 43.25±4.26 μm
[3]; right, nerve-repaired hand, opponens and abductor, 12 and 24 weeks (FIG. 3)
  myofiber diameter vs control animals: statistically significant increase
[4]
  peak plasma level: 4.5 µg/mL
  time of plasma peak: 1 h
[4]; rat, plasma, 24 hr, read-out: plasma level by 24 hr
  concentration at 24 h: 0 ng/mL
Duchenne patients; DMD children, at 6 months and one year
  muscle function tests vs start of trial: little decline in muscle strength
Duchenne patients; DMD children, oral leupeptin for one year
  blood chemistries over the year: no abnormalities
Duchenne patients; Duchenne patient, oral leupeptin 100 mg twice daily
  CREATINE KINASE After 1 yr.: 375 Units/100 ml
Duchenne patients; Duchenne patients (one line per patient), oral leupeptin 50 mg twice daily
  CREATINE KINASE After 1 yr.: 2,500 Units/100 ml (2×) and 4,100 Units/100 ml and 2,700 Units/100 ml and 3,300 Units/100 ml and 3,500 Units/100 ml
Duchenne patients; in vivo, po
  tolerability / adverse effects: well tolerated
